Assay results taken from patent publication EP1298213A1, “Variants of an Erwinia-type creatinase” (Roche Diagnostics GmbH, priority 2001, dated 2003).

How the values were obtained:
[1] = test system: creatinase from Alcalingenes; details: reported in patent US 5,451,520; substrate creatine taken from context (b8); cited from earlier work
[2] = test system: Erwinia sp. DSM 97-934 creatinase variant CTsd2 (N130D, M203V, I278T, F395L), SEQ ID NO: 20; experiment: Km determination, coupled creatinase activity assay; format: biochemical; details: creatine substrate at 90, 45, 22.5, 11.3, 5.6 and 2.8 mM; 0.1 M potassium phosphate buffer pH 7.8; 25°C
Experimental: (§1) The activity assay for creatinase and its variants was performed by using creatine as substrate and a coupled enzymatic reaction according to Guder, W. G., et al., J Clin Chem Clin Biochem 24 (1986) 889-902.
(§2) The reaction mixture was set up by combining the following reagents:
(§3) The assay for creatinase was carried out at 25°C and at the wavelength of 546 nm for 10 min. ΔE was calculated from the measurement points of 6 to 10 min.
(§4) For KM determination, creatinase activity was determined according to the assay procedure described in Example 3 using six different concentrations of creatine substrate: 90 mM, 45 mM, 22.5 mM, 11.3 mM, 5.6 mM and 2.8 mM.

[3] = test system: Erwinia sp. DSM 97-934 creatinase variant CT2m10 (N130D, I278T, F395L), SEQ ID NO: 14; experiment: as above; format: biochemical; details: creatine substrate at 90, 45, 22.5, 11.3, 5.6 and 2.8 mM; 0.1 M potassium phosphate buffer pH 7.8; 25°C
Experimental: as §1, §2, §3, §4

[4] = test system: Erwinia sp. DSM 97-934 creatinase variant CTsd7 (F59W, N130D, M203V, I278T, F395L), SEQ ID NO: 22; experiment: as above; format: biochemical; details: creatine substrate at 90, 45, 22.5, 11.3, 5.6 and 2.8 mM; 0.1 M potassium phosphate buffer pH 7.8; 25°C
Experimental: as §1, §2, §3, §4

[5] = test system: Erwinia sp. DSM 97-934 creatinase variant CT1m24 (N130D, I278T), SEQ ID NO: 10; experiment: as above; format: biochemical; details: creatine substrate at 90, 45, 22.5, 11.3, 5.6 and 2.8 mM; 0.1 M potassium phosphate buffer pH 7.8; 25°C
Experimental: as §1, §2, §3, §4

[6] = test system: Erwinia sp. DSM 97-934 creatinase variant CTqc2 (F59W, N130D, I278T), SEQ ID NO: 18; experiment: as above; format: biochemical; details: creatine substrate at 90, 45, 22.5, 11.3, 5.6 and 2.8 mM; 0.1 M potassium phosphate buffer pH 7.8; 25°C
Experimental: as §1, §2, §3, §4

[7] = test system: Erwinia sp. DSM 97-934 creatinase variant CT2m9 (N130D, M203V, I278T), SEQ ID NO: 12; experiment: as above; format: biochemical; details: creatine substrate at 90, 45, 22.5, 11.3, 5.6 and 2.8 mM; 0.1 M potassium phosphate buffer pH 7.8; 25°C
Experimental: as §1, §2, §3, §4

[8] = test system: Erwinia sp. DSM 97-934 creatinase, wild type, SEQ ID NO:2; experiment: as above; format: biochemical; details: creatine substrate at 90, 45, 22.5, 11.3, 5.6 and 2.8 mM; 0.1 M potassium phosphate buffer pH 7.8; 25°C
Experimental: as §1, §2, §3, §4

[9] = test system: Erwinia sp. DSM 97-934 creatinase variant CT2m28 (N130D, I304L, I278T), SEQ ID NO: 16; experiment: as above; format: biochemical; details: creatine substrate at 90, 45, 22.5, 11.3, 5.6 and 2.8 mM; 0.1 M potassium phosphate buffer pH 7.8; 25°C
Experimental: as §1, §2, §3, §4

For `CN(CC(=O)O)C(=N)N` [creatine], the Km [1] is given as 13 mM, the Km [2] is given as 2.1 mM and the Km [3] is given as 3.4 mM. It also gave a Km [4] of 2 mM, a Km [5] of 8.2 mM and a Km [6] of 6.6 mM. The Km [7] was 6.3 mM, the Km [8] was 4.3 mM and the Km [9] was 4 mM.
